Data reported in paper PMC4772543, “Immune responses to Mycobacterial heat shock protein 70 accompany self-reactivity to human BiP in rheumatoid arthritis” (Scientific Reports, 2016).

Experiments:
[1] = tested on: collagen-induced arthritis in DBA/1 J mice; test: Oral administration of peptide in collagen-induced arthritis (CIA); assay type: in vivo, mouse
Method: Figure 6 Oral tolerance of MycHSP70_287–306 peptides in a collagen-induced arthritis model. (A,B) The MycHSP70_287–306 peptide or control (PBS alone) was orally administered to bovine type II collagen-immunized DBA/1 J mice after the occurrence of CIA for 5 continuous days (n = 12). Mice were sacrificed on day 35. Arthritis scores were measured by finger and paw swelling, and histological scores were measured by cell infiltration (C), pannus formation (P), and bone destruction (B). (C) Splenic CD4^+ T cell proliferation from CIA-induced DBA/1 J mice in response to a recall antigen (Ag) stimulation (MycHSP70_287–306 and BiP336–355 epitopes, and heat-denatured bovine type II collagen (BC II)). Proliferation was determined by[3]-H thymidine incorporation. (D) Serum anti-BiP and anti-BC II antibody titers were measured by ELISA. (E,F) Mouse IL-10 and TGF-beta1 concentrations in the splenic CD4^+ T cell culture were measured by ELISA. Data were representative of at least three independent trials. *p < 0.05, **p < 0.01, ***p < 0.001.
Serum antibodies were measured by ELISA as previously reported. Briefly, 96-well plates (Thermo Fisher Scientific) were coated with 5 μg/mL of each antigen and dissolved in 0.1 M NaHCO3. Diluted samples (100x) were applied, followed by goat anti-human IgG-horseradish peroxidase (HRP) (5000:1,Vector) or goat anti-mouse IgG-HRP (5000:1, Life Technologies) detection antibodies and TMB solution (KPL) for development.
CIA in the background of DBA/1 J female mice (SLC Japan) was performed and arthritis scores were acquired as previously described. In the therapeutic experiments, mice were administered 200 μg of MycHSP287–306 peptides orally for 5 continuous days following the onset of arthritis. Mice were sacrificed on day 35, and the CD4^+ T cell culture was performed as described above. Mouse cytokine concentrations in the supernatants were measured using a mouse IL-10 ELISA kit and mouse/human TGF-beta 1 ELISA kit (eBioscience) according to the manufacturer’s protocol. Tissue samples were embedded in paraffin wax after 10% formaldehyde fixation and decalcification. Sections were stained with hematoxylin and eosin. Synovial tissues were graded by mononuclear cell infiltration, pannus formation, and cartilage erosion, as described previously. All animal experiments were conducted in accordance with Institutional and National Guidelines, and the protocols were approved by the Ethical Committee on Animal Experiments of the University of Tokyo. […]
Oral tolerance of MycHSP70287-306 peptides on collagen-induced arthritis (CIA) model. The experimental protocol was the same as Figure 6.
(A)(B)Mouse IL-17 and IFN-gamma concentrations in the splenic CD4+ T cell culture was measured by ELISA (Mouse cytokine ELISA ready-set-go, eBioscience) according to the manufacture’s protocol. (C) The frequencies of splenic regulatory T cells in CIA (n=4, each). FACS analysis was performed by FACS Vantage (BD Bioscience). Cells were stained by anti-mouse CD4
APC antibody, anti-mouse CD25 FITC antibody, FOXP3 staining was performed using anti-mouse Foxp3 PE antibody (eBioscience) by using […]

[2] = tested on: PBMCs of HLA-DR4-positive RA patients; test: Peptide-induced cytokine secretion from PBMCs (ELISA); assay type: cell-based, human
Method: Figure 3 MycHSP70_287–306 was a HLA-DR4-restricted epitope in RA. (A) The proliferation of PBMCs in RA patients (Shared epitope (SE) +/+ n = 12, SE +/− n = 22, SE−/− n = 9) and HDs (SE +/− n = 10) in response to MycHSP70_287–306. Proliferation was determined by the incorporation of [3]-H thymidine. The stimulation index (SI) was calculated using the following equation: (median thymidine uptake to an antigen)/(median thymidine uptake in the absence of an antigen). Horizontal line: the median. (B) Amino acid sequences of MycHSP70 (lower lines) and human BiP (upper lines) near the epitopes. Epitope sequences are indicated in bold letters. (C) Relationship between MycHSP70_287–306-induced proliferation and BiP336–355-induced proliferation in RA PBMCs (9 patients with SE +/+ and 14 patients with SE +/−). (D) Blockade of the MycHSP287–306-induced proliferation of PBMCs from HLA-DR4-positive RA patients (n = 6) using an anti-HLA-DR antibody. (E) The secretion of MycHSP287–306-induced IFN-γ from the PBMCs of HLA-DR4-positive HDs (n = 6) and RA patients (n = 8). (F) Blockade of MycHSP287–306-induced cytokine secretion from the PBMCs of HLA-DR4-positive RA patients (n = 6) using an anti-HLA-DR antibody. *p < 0.05, **p < 0.01, ***p < 0.001.
PBMCs (1 × 10^6/mL) isolated with Ficoll-Paque (GE Healthcare) were cultured in the presence or absence of each peptide (10 μg/mL) with RPMI 1640 medium supplemented with 10% human serum, 2 mM L-glutamine, 100 U/ml penicillin, and 100 μg/ml streptomycin in a humidified incubator at 37 °C, 5% CO2, for 96 hours. Cells were incubated for 18 h following a ^3H-thymidine pulse into each well and harvested using a semiautomated sample harvester. Counts per minute were measured with a scintillation counter. In some experiments, the culture supernatants were collected after a 72-hour incubation and cytokine concentrations were measured in the culture supernatants by a human IFN-γ high sensitivity ELISA kit and human IL-17 high sensitivity ELISA kit (eBioscience). […]

[3] = CIA mice given peptide orally vs PBS, ELISA
[4] = peptide 10 μg/mL, supernatant after 72-hour incubation, ELISA

DRTRKPFQSVIADTGISVSE [MycHSP70_287–306]
development of arthritis (arthritis scores) ([1]; 200 μg peptide orally for 5 continuous days after onset of arthritis, vs PBS, n = 12, sacrificed day 35): significantly improved
histological scores ([1]; 200 μg peptide orally for 5 continuous days, cell infiltration, pannus formation, bone destruction, day 35): significantly improved
serum anti-BC II antibody titers [1, 3]: significantly decreased
serum anti-BiP antibody titers [1, 3]: significantly decreased
frequency of CD4+ CD25+ Foxp3+ regulatory T cells ([1]; splenic, CIA mice given peptide orally vs PBS, n=4 each, FACS): increased
peptide-induced IFN-γ and IL-17 secretion with anti-HLA-DR antibody ([2]; HLA-DR4-positive RA patients n = 6, anti-HLA DR antibody (L243) 10 μg/mL): blocked
secretion of interferon (IFN)-γ [2, 4]: induced
secretion of interleukin (IL)-17 [2, 4]: induced
